# Assay results as given in ChEMBL document CHEMBL1201862, “PubChem BioAssay data set” (2004).
# Activity calls are given as the source filed them.
# Assays:
# Phosphomannomutase 2 = Phosphomannomutase 2 (Homo sapiens, UniProt O15305); assay: Counter screen SAR assay for PMM2 inhibitors via a fluorescence intensity assay. [Related pubchem assays (depositor defined):AID1545, AID1574]
# [1] = target: T1, Mannose-6-phosphate isomerase (Homo sapiens, UniProt P34949); assay: phosphomannose isomerase inhibition – biochemical, fluorescence intensity, confirmation (AID 1535)
# T1 sequence (P34949 whole entry): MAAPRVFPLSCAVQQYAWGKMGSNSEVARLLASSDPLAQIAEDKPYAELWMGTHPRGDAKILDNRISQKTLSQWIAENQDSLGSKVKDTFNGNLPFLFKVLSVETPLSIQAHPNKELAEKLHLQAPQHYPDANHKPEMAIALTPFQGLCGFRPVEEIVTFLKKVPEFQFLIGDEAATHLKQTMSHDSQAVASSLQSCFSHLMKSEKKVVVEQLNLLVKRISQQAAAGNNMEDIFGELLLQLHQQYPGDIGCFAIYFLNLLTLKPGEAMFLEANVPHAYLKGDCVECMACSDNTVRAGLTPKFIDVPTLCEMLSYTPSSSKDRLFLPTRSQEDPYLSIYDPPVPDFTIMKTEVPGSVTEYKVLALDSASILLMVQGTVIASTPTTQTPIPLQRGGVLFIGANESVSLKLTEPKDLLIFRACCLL
# [2] = target: T2, E3 ubiquitin-protein ligase XIAP (Homo sapiens, UniProt P98170); assay: small molecules displacing peptide from XIAP – biochemical, IAP family, fluorescence polarization (AID 1018); type: functional
# T2 sequence (P98170 whole entry): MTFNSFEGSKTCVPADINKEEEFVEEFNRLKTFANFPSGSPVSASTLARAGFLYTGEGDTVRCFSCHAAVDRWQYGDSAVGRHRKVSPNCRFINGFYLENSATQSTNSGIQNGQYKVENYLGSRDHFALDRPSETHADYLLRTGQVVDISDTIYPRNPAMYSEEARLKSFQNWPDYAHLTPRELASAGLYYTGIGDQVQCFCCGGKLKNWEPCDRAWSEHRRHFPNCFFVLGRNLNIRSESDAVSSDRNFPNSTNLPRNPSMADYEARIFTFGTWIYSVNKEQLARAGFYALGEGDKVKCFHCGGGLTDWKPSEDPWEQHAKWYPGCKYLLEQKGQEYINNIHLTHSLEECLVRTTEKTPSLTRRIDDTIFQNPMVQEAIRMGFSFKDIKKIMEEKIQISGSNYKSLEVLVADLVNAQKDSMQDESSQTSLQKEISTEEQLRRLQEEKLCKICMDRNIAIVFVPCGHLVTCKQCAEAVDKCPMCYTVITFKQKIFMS
# [3] = HIV-1 Vif–A3G interaction blockers – biochemical, TR-FRET, GST-Vif 1-94, biotin-A3G peptide, dose response retest, primary screen (AID 1117319); type: functional;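 also: TR-FRET signal of purified GST-Vif binding a biotinylated A3G peptide; inhibitors lower the FRET signal by blocking Vif and A3G binding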
# [4] = target: T2, E3 ubiquitin-protein ligase XIAP; assay: Counter Screen using XIAP-Bir3 for Chemical Antagonists of Bir1/2 domains of IAP-family anti-apoptotic proteins. [Related pubchem assays (depositor defined):AID1018, AID1449, AID1514, AID1638, AID1749, AID1750, AID488957, AID488963]
# Bcl-2-related protein A1 = target: T3, Bcl-2-related protein A1 (Mus musculus, UniProt Q07440); type: functional;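 also: confirmatory dose–response counterscreen on Bfl-1, used to check hits from a UBC13 polyubiquitin inhibitor campaign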
# T3 sequence (Q07440 whole entry): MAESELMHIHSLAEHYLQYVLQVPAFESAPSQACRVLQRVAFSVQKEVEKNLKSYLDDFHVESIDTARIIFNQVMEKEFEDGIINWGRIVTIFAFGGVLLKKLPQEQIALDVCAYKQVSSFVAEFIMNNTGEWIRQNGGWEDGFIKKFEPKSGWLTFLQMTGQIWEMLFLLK
# [5] = target: T4, Ubiquitin-conjugating enzyme E2 N (Homo sapiens, UniProt P61088); type: functional
# T4 sequence (P61088 whole entry): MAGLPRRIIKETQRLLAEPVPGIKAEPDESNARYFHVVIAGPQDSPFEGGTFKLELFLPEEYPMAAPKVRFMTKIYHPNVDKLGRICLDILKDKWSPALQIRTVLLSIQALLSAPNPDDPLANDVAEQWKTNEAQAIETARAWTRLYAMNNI
# [6] = target: T4, Ubiquitin-conjugating enzyme E2 N; type: functional; remark: listed apart in the source
# [7] = Luminescence Cell-Based Dose Response HTS to Identify Activators of Luciferase Translation or Activity in H4 […] Cells. [Related pubchem assays: 1829 (Project Summary), 1814 (Primary HTS)]; type: functional
# [8] = THP-1 cell cytotoxicity, dose response, cytotoxicity control for non-replicating M. tuberculosis project (AID 489025); type: functional
# Genome polyprotein = Genome polyprotein (dengue virus type 2, UniProt P29990); assay: flavivirus cap methylation enzyme inhibition – biochemical, confirmation dose response, primary screen (AID 588689); type: functional
# Sequence of Genome polyprotein (P29990 2492-3391 limits assumed): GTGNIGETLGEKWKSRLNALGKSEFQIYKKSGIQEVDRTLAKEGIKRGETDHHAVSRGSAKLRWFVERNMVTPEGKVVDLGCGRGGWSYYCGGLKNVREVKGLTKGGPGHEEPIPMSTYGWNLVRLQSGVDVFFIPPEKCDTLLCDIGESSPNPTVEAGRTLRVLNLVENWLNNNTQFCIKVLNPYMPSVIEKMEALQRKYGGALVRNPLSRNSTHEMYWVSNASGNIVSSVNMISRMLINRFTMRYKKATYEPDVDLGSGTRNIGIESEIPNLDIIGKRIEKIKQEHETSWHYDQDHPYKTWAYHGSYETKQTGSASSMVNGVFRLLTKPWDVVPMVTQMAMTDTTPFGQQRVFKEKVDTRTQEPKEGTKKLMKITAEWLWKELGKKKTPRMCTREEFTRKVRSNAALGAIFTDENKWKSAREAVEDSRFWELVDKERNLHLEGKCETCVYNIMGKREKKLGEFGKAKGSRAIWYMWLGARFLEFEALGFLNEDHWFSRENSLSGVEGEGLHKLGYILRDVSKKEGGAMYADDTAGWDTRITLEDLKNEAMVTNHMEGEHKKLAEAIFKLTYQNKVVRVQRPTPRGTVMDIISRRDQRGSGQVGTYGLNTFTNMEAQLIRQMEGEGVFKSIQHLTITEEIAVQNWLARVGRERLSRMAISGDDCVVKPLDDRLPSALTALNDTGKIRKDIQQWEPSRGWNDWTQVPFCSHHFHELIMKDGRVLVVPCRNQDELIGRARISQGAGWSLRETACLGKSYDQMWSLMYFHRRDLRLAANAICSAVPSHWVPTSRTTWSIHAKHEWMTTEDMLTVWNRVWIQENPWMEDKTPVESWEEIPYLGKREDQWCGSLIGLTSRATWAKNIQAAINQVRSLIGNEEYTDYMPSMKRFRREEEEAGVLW
# [9] = HepG2 cell cytotoxicity, dose response, cytotoxicity control for non-replicating M. tuberculosis project (AID 489018); type: functional; conditions: Mycobacterium tuberculosis
# [10] = microbe, parasite or virus in culture; type: functional; conditions: Mycobacterium tuberculosis
# [11] = target: T5, Polyadenylate-binding protein 1 (Homo sapiens, UniProt P11940); assay: MLLE binding blockers, Cy5 peptide tracer – biochemical, fluorescence polarization, Cy5-PAM2 peptide, secondary, miRNA deadenylation inhibitor project, dose response (AID 602260); type: functional; conditions: read-out: IC50_Mean
# T5 sequence (P11940 whole entry): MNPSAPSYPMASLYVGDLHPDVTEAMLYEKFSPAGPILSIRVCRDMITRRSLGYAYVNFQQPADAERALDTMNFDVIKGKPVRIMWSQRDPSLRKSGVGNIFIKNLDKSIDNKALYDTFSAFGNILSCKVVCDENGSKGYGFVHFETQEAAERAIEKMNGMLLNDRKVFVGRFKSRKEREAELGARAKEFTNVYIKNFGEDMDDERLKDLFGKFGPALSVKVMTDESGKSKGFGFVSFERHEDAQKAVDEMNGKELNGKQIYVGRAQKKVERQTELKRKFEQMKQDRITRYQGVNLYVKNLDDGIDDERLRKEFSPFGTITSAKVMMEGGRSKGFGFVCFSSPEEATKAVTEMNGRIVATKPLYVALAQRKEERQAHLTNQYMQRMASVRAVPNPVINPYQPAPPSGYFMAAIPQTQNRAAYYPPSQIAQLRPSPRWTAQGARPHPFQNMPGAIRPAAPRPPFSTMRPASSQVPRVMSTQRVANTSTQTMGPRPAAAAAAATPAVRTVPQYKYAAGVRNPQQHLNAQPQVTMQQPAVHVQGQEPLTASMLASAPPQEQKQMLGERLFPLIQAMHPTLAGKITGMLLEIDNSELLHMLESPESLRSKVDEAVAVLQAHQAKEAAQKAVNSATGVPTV
# [12] = Luminescence Cell-Based Dose Confirmation HTS to Identify Activators of 5'UTR Stem-Loop Driven Alpha-Synuclein mRNA Translation in H4 Neuroglioblastoma Cells. [Related pubchem assays: 1829 (Project Summary), 1814 (Primary HTS)]; type: functional
# Protein RecA = target: T6, Protein RecA (Mycobacterium tuberculosis, UniProt P9WHJ3); assay: Fluorescence Cell-Free Homogeneous Dose Retest to Identify Inhibitors of RecA-Intein Splicing Activity. [Related pubchem assays (depositor defined):AID2097, AID2223, AID489010, AID492950]; type: functional
# T6 sequence (P9WHJ3 whole entry): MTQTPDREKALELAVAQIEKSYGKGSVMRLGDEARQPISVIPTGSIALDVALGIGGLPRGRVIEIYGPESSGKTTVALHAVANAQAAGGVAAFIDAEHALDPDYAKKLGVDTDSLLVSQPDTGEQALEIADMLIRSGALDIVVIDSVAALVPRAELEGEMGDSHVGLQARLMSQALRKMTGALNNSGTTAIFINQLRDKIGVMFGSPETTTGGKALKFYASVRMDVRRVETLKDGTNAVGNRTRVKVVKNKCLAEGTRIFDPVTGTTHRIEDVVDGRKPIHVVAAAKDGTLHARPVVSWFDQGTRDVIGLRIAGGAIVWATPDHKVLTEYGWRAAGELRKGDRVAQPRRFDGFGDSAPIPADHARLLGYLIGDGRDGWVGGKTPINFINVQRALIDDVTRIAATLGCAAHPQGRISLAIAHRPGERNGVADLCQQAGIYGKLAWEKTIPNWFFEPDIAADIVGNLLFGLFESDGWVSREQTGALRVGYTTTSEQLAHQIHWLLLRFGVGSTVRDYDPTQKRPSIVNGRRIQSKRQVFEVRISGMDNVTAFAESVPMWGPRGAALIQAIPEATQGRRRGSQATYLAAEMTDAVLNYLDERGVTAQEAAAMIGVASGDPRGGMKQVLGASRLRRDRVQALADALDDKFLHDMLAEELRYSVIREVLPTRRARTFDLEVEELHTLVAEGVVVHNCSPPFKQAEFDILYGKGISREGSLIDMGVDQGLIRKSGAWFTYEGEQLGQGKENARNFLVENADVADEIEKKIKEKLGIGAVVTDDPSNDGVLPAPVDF
# cells = type: functional
# [13] = target: T7, Replicative DNA helicase DnaB (Mycobacterium tuberculosis, UniProt P9WMR3); assay: DnaB intein splicing inhibitors, dose response, biochemical, cell-free fluorescence (AID 449749); type: functional
# T7 sequence (P9WMR3 whole entry): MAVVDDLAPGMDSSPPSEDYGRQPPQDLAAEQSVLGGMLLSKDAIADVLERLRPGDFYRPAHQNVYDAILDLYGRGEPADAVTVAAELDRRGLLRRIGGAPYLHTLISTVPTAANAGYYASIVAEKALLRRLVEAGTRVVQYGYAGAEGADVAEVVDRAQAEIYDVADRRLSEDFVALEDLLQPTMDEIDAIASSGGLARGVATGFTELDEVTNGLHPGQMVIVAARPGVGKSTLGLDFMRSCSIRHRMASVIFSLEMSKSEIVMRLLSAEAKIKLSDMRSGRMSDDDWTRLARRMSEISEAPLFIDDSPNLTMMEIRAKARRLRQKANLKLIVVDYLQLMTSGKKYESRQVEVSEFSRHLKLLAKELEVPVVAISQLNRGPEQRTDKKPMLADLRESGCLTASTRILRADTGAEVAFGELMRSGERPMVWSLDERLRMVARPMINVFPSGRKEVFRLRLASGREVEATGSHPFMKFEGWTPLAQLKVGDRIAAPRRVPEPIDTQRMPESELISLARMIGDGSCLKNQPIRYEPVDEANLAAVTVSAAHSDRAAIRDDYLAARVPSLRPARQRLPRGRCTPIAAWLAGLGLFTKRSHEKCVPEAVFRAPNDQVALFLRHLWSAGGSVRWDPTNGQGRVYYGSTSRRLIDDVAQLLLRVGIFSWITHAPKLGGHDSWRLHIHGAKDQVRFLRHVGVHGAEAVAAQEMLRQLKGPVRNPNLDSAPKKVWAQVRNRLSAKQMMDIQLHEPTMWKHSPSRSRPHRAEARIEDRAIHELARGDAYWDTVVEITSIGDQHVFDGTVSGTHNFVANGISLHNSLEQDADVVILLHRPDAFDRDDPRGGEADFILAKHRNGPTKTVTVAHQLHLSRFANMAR
# [14] = Vero E6 cell cytotoxicity, dose response, cytotoxicity control for non-replicating M. tuberculosis project, secondary assay (AID 492998); type: functional, VeroE6; conditions: Vero C1008
# Vero = assay: viability of Vero cells under compound – cytotoxicity control for flavivirus capping enzyme inhibitors (AID 588742); type: functional; conditions: Chlorocebus sabaeus
# H4 = assay: Luminescence Cell-Based Dose Response HTS to Identify Activators of 5'UTR Stem-Loop Driven Prion Protein mRNA Translation in H4 Neuroglioblastoma Cells. [Related pubchem assays: 1829 (Project Summary), 1814 (Primary HTS)]; type: functional; conditions: Homo sapiens
# [15] = target: T5, Polyadenylate-binding protein 1; assay: MLLE domain peptide-binding blockers, IC50 – biochemical, fluorescence polarization, FITC-PAM2 peptide, dose response (AID 602259); type: functional; conditions: read-out: IC50_Mean
# Streptokinase A = target: T8, Streptokinase A (Streptococcus pyogenes serotype M1, UniProt P10520); assay: viability-normalized secreted streptokinase activity reduction – plasminogen activation absorbance, OD405, dose response (AID 1914); type: functional, Streptococcus pyogenes M1 GAS;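 also: secreted streptokinase activity via plasminogen activation per viability signal from cell pellet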
# T8 sequence (P10520 whole entry): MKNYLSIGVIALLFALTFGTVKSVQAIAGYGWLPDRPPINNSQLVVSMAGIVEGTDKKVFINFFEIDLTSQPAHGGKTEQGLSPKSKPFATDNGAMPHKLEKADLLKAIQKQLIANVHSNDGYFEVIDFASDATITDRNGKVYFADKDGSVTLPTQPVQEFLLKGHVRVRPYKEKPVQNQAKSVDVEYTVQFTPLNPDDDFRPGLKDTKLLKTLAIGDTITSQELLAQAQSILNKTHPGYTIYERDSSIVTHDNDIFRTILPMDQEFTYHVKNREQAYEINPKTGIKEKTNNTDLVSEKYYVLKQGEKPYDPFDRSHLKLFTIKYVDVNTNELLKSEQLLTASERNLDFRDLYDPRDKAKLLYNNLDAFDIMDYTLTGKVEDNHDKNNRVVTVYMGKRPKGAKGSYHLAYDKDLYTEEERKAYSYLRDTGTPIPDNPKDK
# Streptococcus = assay: GAS UMAA2166 growth inhibition – luminescence, BacTiterGlo, counter-screen for streptokinase expression inhibitor project, dose response (AID 1915); type: functional, organism-based;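 also: potency for reduction of bacterial viability or growth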
# [16] = tested on: Streptococcus sp. 'group A'; assay: Streptococcus pyogenes SK(-)GAS viability under kanamycin – luminescence, BacTiterGlo, confirmation, counter-screen for streptokinase expression inhibitor project, dose response (AID 1900); type: functional, organism-based
# [17] = target: G-protein coupled receptor 55 (Homo sapiens, UniProt Q9Y2T6); assay: inhibition of LPI-stimulated GPR55 beta-arrestin translocation – imaging, U2OS, beta-arrestin-GFP, LPI agonist, primary screen (AID 2013); type: functional;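 also: antagonist potency measured as reduced agonist-driven arrestin aggregation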
# Sequence of G-protein coupled receptor 55 (Q9Y2T6 whole entry): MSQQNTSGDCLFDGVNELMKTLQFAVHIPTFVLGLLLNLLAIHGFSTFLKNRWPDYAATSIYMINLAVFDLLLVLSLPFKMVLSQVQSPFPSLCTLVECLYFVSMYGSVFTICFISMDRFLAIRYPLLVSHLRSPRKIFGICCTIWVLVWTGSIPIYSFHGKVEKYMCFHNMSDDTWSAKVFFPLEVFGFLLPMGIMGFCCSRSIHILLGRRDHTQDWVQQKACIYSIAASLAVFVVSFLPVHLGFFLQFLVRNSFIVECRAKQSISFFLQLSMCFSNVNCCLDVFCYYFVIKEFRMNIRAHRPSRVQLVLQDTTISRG
# Sequence of Phosphomannomutase 2 (O15305 whole entry): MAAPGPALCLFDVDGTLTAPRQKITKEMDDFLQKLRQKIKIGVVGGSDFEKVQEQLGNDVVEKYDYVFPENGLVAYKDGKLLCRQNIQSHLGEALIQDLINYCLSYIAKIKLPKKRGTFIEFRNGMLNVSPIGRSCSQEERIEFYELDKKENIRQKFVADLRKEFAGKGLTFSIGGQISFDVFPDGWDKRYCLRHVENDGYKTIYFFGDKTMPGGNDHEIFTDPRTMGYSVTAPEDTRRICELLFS
smiles,measurement,setting,value
COCCNP(=O)(c1ccccc1)c1nc2ccccc2s1 (stereo not drawn),IC50,Phosphomannomutase 2,> 100 µM (inactive)
same,IC50,[1],> 50 µM (inactive)
O=C(O)CN1C(=O)COc2cc(S(=O)(=O)N3CCCC3)ccc21,IC50,[2],> 100 µM (not active)
same,IC50,[3],> 100 µM (active)
same,IC50,[4],> 100 µM (inactive)
COc1ccc(/C=C/C(=O)Nc2c(C)nn(C)c2C)cc1COc1ccc(Cl)cc1Br,IC50,Bcl-2-related protein A1,3.32 µM (active)
same,IC50,[5],17.4 µM (active)
same,IC50,[6],15.6 µM (active)
O=[N+]([O-])c1cc([N+](=O)[O-])c2cc3ccccc3nc2c1,EC50,[7],> 120 µM (not active)
same,CC50,[8],5.67 µM (active)
same,IC50,Genome polyprotein,6.37 µM (active)
same,CC50,[9],14 µM (active)
same,CC50,[10],18.9 µM (active)
same,IC50,[11],> 66 µM (inactive)
same,EC50,[12],> 120 µM (not active)
same,EC50,Protein RecA,1.17 µM (active)
same,IC50,cells,0.39 µM (active)
same,AC50,[13],> 380 µM (inconclusive)
same,CC50,[14],12.7 µM (active)
same,CC50,Vero,10.1 µM (active)
same,EC50,H4,32 µM (active)
same,IC50,[15],> 66 µM (inactive)
COc1ccc(CCNC(=O)CSc2nncn2N)cc1OC,EC50,Streptokinase A,> 150 µM (not active)
same,IC50,[2],> 100 µM (not active)
same,EC50,Streptococcus,> 150 µM (not active)
same,IC50,[4],> 100 µM (inactive)
same,EC50,[16],> 150 µM (not active)
O=C1/C(=C/c2ccncc2)SC(=S)N1C1CCS(=O)(=O)C1 (stereo not drawn),IC50,[17],5.49 µM (active)
